Assay results: US20230085307A1, “PYRIDAZINONE COMPOUND AND HERBICIDE” (NISSAN CHEMICAL CORPORATION, priority 2019, published 2023)

Assays:
southern crabgrass [1] = assay: Test Example 5: herbicidal effect by foliage application, plastic box (Table 20, symbol F); assay type: in vivo, southern crabgrass (Digitaria ciliaris); details: foliage application, 320 g/ha, 3 weeks after application
In short: (§1)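 Post-emergence foliar test in sterilized diluvial soil. Compound applied as water-diluted emulsion at a predetermined rate to 14-day-old plants; evaluation at three weeks.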

velvetleaf [2] = assay: Test Example 4: herbicidal effect by soil treatment (Table 19, symbol M); assay type: in vivo, velvetleaf (Abutilon theophrasti); details: for herbicidal effect rating, M: velvetleaf: 320 g/ha
In short: (§2)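 Emulsion of test compound, water-diluted to predetermined amount, sprayed on soil after sowing (seed depth ~1.5 cm, sterilized diluvial soil). Greenhouse, 25–30° C. Effect graded at three weeks post-spray.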

windgrass [3] = assay: Test Example 4: herbicidal effect by soil treatment (Table 19, symbol L); assay type: in vivo, windgrass (Apera spica-venti); details: for herbicidal effect rating, L: windgrass: 320 g/ha
In short: as §2

barnyard grass [4] = assay: Test Example 4: herbicidal effect by soil treatment (Table 19, symbol H); assay type: in vivo, barnyard grass (Echinochloa crus-galli); details: for herbicidal effect rating, H: barnyard grass: 320 g/ha
In short: as §2

barnyard grass [5] = assay: Test Example 3: herbicidal effect by foliage application, Wagner pot (Table 18, symbol H); assay type: in vivo, barnyard grass (Echinochloa crus-galli); details: 320 g/ha
In short: (§3)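 Plants were sown in alluvial soil held under 0.1–0.5 cm standing water and grown 14 days in a greenhouse at 25–30 °C. An emulsifiable formulation, water-diluted to the set dose, was then sprayed onto the foliage, and effects were scored three weeks later using previously defined criteria.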

southern crabgrass [6] = assay: Test Example 4: herbicidal effect by soil treatment (Table 19, symbol F); assay type: in vivo, southern crabgrass (Digitaria ciliaris); details: for herbicidal effect rating, F: southern crabgrass: 320 g/ha
In short: as §2

Italian ryegrass = assay: Test Example 5: herbicidal effect by foliage application, plastic box (Table 20, symbol K); assay type: in vivo, Italian ryegrass (Lolium multiflorum); details: foliage application, 320 g/ha, 3 weeks after application
In short: as §1

Chinese sprangletop = assay: Test Example 3: herbicidal effect by foliage application, Wagner pot (Table 18, symbol D); assay type: in vivo, chinese sprangletop (Leptochloa chinensis); details: 320 g/ha
In short: as §3

wild oat = assay: Test Example 5: herbicidal effect by foliage application, plastic box (Table 20, symbol I); assay type: in vivo, wild oat (Avena fatua); details: foliage application, 320 g/ha, 3 weeks after application
In short: as §1

Japanese bulrush [7] = assay: Test Example 1: herbicidal activity, application before weed generation under submerged conditions (Table 16, symbol B); assay type: in vivo, Japanese bulrush (Schoenoplectus juncoides); details: 320 g/ha applied herbicide
In short: (§4)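 Alluvial soil was flooded to 4 cm depth, weed seeds were sown mixed and 2.5-leaf rice seedlings were transplanted. On sowing day, the compound's emulsion, diluted in water to a set dose, was applied to the water surface. Plants grew at 25–30 °C and were scored 0–5 after three weeks.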

lambsquarters [8] = assay: Test Example 5: herbicidal effect by foliage application, plastic box (Table 20, symbol O); assay type: in vivo, lambsquarters (Chenopodium album); details: foliage application, 320 g/ha, 3 weeks after application
In short: as §1

windgrass [9] = assay: Test Example 5: herbicidal effect by foliage application, plastic box (Table 20, symbol L); assay type: in vivo, windgrass (Apera spica-venti); details: foliage application, 320 g/ha, 3 weeks after application
In short: as §1

persian speedwell = assay: Test Example 5: herbicidal effect by foliage application, plastic box (Table 20, symbol R); assay type: in vivo, Persian speedwell (Veronica persica); details: foliage application, 320 g/ha, 3 weeks after application
In short: as §1

velvetleaf [10] = assay: Test Example 5: herbicidal effect by foliage application, plastic box (Table 20, symbol M); assay type: in vivo, velvetleaf (Abutilon theophrasti); details: foliage application, 320 g/ha, 3 weeks after application
In short: as §1

late watergrass = assay: Test Example 1: herbicidal activity, application before weed generation under submerged conditions (Table 16, symbol A); assay type: in vivo, late watergrass (Echinochloa oryzicola); details: 320 g/ha applied herbicide
In short: as §4

lambsquarters [11] = assay: Test Example 4: herbicidal effect by soil treatment (Table 19, symbol O); assay type: in vivo, lambsquarters (Chenopodium album); details: for herbicidal effect rating, O: lambsquarters: 320 g/ha
In short: as §2

Japanese bulrush [12] = assay: Test Example 2: herbicidal activity, application during weed generation under submerged conditions (Table 17, symbol B); assay type: in vivo, Japanese bulrush (Schoenoplectus juncoides); details: AAH 320 g/ha; application during weed generation, submerged conditions
In short: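 Wagner pot, alluvial soil, 4 cm flood; mixed sowing of all species; greenhouse 25° C.–30° C. Emulsifiable formulation, water-diluted to predetermined dose, applied to paddy water at 1–2 leaf stage. Effect rated at 3 wk using the earlier test's scoring criteria.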

| Compound | effect on southern crabgrass (F) (southern crabgrass [1]) | herbicidal effect on H (barnyard grass), rating 0-5 (barnyard grass [5]) | effect on Italian ryegrass (K) (Italian ryegrass) | herbicidal effect on D (Chinese sprangletop), rating 0-5 (Chinese sprangletop) | effect on wild oat (I) (wild oat) | Herbicidal effect on B: Japanese bulrush (grade 0-5) (Japanese bulrush [7]) | effect on lambsquarters (O) (lambsquarters [8]) | effect on windgrass (L) (windgrass [9]) | effect on persian speedwell (R) (persian speedwell) | effect on velvetleaf (M) (velvetleaf [10]) | Herbicidal effect on A: late watergrass (grade 0-5) (late watergrass) | herbicidal effect rating, B: Japanese bulrush (Japanese bulrush [12]) | herbicidal effect rating, M: velvetleaf (velvetleaf [2]) | herbicidal effect rating, L: windgrass (windgrass [3]) | herbicidal effect rating, H: barnyard grass (barnyard grass [4]) | herbicidal effect rating, F: southern crabgrass (southern crabgrass [6]) | herbicidal effect rating, O: lambsquarters (lambsquarters [11]) | further results |
| --- | --- | --- | --- | --- | --- | --- | --- | --- | --- | --- | --- | --- | --- | --- | --- | --- | --- | --- |
| Cc1nn(C)c(=O)c(-c2c(-c3ccc(F)cc3)sc3ccc(F)cc23)c1O [2-001] | 5 (Herbicidal rate of 90% or more (almost completely withered)) | 5 (Herbicidal rate of 90% or more (almost completely withered)) | 5 (Herbicidal rate of 90% or more (almost completely withered)) | 5 (Herbicidal rate of 90% or more (almost completely withered)) | 5 (Herbicidal rate of 90% or more (almost completely withered)) | 3 (Herbicidal rate of 40% or more and less than 70%) | 5 (Herbicidal rate of 90% or more (almost completely withered)) | 4 (Herbicidal rate of 70% or more and less than 90%) | 5 (Herbicidal rate of 90% or more (almost completely withered)) | 5 (Herbicidal rate of 90% or more (almost completely withered)) | 2 (Herbicidal rate of 20% or more and less than 40%) | 2 (Herbicidal rate of 20% or more and less than 40%) | – | – | – | – | – | M: velvetleaf, herbicidal effect rating (velvetleaf [2]; AAH 320 g/ha): 5 (Herbicidal rate of 90% or more (almost completely withered)); L: windgrass, herbicidal effect rating (windgrass [3]; AAH 320 g/ha): 0 (Herbicidal rate of 5% or less (almost no effect)); H: barnyard grass, herbicidal effect rating (barnyard grass [4]; AAH 320 g/ha): 3 (Herbicidal rate of 40% or more and less than 70%); F: southern crabgrass, herbicidal effect rating (southern crabgrass [6]; AAH 320 g/ha): 5 (Herbicidal rate of 90% or more (almost completely withered)); O: lambsquarters, herbicidal effect rating (lambsquarters [11]; AAH 320 g/ha): 5 (Herbicidal rate of 90% or more (almost completely withered)) |
| CCCC(=O)Oc1c(C)nn(C)c(=O)c1-c1c(-c2ccc(Cl)cc2)sc2ccc(F)cc12 [2-011] | 4 (Herbicidal rate of 70% or more and less than 90%) | 5 (Herbicidal rate of 90% or more (almost completely withered)) | 5 (Herbicidal rate of 90% or more (almost completely withered)) | 4 (Herbicidal rate of 70% or more and less than 90%) | 3 (Herbicidal rate of 40% or more and less than 70%) | 3 (Herbicidal rate of 40% or more and less than 70%) | 5 (Herbicidal rate of 90% or more (almost completely withered)) | 3 (Herbicidal rate of 40% or more and less than 70%) | 5 (Herbicidal rate of 90% or more (almost completely withered)) | 5 (Herbicidal rate of 90% or more (almost completely withered)) | 3 (Herbicidal rate of 40% or more and less than 70%) | 3 (Herbicidal rate of 40% or more and less than 70%) | 3 (Herbicidal rate of 40% or more and less than 70%) | 2 (Herbicidal rate of 20% or more and less than 40%) | 3 (Herbicidal rate of 40% or more and less than 70%) | 3 (Herbicidal rate of 40% or more and less than 70%) | 5 (Herbicidal rate of 90% or more (almost completely withered)) | – |
| CCCC(=O)Oc1c(C)nn(C)c(=O)c1-c1c(-c2ccc(CC)cc2)sc2ccc(F)cc12 [2-016] | 0 (Herbicidal rate of 5% or less (almost no effect)) | 5 (Herbicidal rate of 90% or more (almost completely withered)) | 5 (Herbicidal rate of 90% or more (almost completely withered)) | 5 (Herbicidal rate of 90% or more (almost completely withered)) | 3 (Herbicidal rate of 40% or more and less than 70%) | 3 (Herbicidal rate of 40% or more and less than 70%) | 5 (Herbicidal rate of 90% or more (almost completely withered)) | 5 (Herbicidal rate of 90% or more (almost completely withered)) | 5 (Herbicidal rate of 90% or more (almost completely withered)) | 5 (Herbicidal rate of 90% or more (almost completely withered)) | 5 (Herbicidal rate of 90% or more (almost completely withered)) | 4 (Herbicidal rate of 70% or more and less than 90%) | 3 (Herbicidal rate of 40% or more and less than 70%) | 1 (Herbicidal rate of 5% or more and less than 20%) | 1 (Herbicidal rate of 5% or more and less than 20%) | 0 (Herbicidal rate of 5% or less (almost no effect)) | 5 (Herbicidal rate of 90% or more (almost completely withered)) | – |
| C=Cc1ccc(-c2sc3ccc(F)cc3c2-c2c(O)c(C)nn(C)c2=O)cc1 [2-018] | 1 (Herbicidal rate of 5% or more and less than 20%) | 5 (Herbicidal rate of 90% or more (almost completely withered)) | 4 (Herbicidal rate of 70% or more and less than 90%) | 4 (Herbicidal rate of 70% or more and less than 90%) | 5 (Herbicidal rate of 90% or more (almost completely withered)) | 3 (Herbicidal rate of 40% or more and less than 70%) | 5 (Herbicidal rate of 90% or more (almost completely withered)) | 5 (Herbicidal rate of 90% or more (almost completely withered)) | 5 (Herbicidal rate of 90% or more (almost completely withered)) | 5 (Herbicidal rate of 90% or more (almost completely withered)) | 0 (Herbicidal rate of 5% or less (almost no effect)) | 2 (Herbicidal rate of 20% or more and less than 40%) | 1 (Herbicidal rate of 5% or more and less than 20%) | 2 (Herbicidal rate of 20% or more and less than 40%) | 0 (Herbicidal rate of 5% or less (almost no effect)) | 0 (Herbicidal rate of 5% or less (almost no effect)) | 4 (Herbicidal rate of 70% or more and less than 90%) | – |
